{
  "source": "patent US20100249234A1",
  "about": "“METHODS OF REDUCING VIRULENCE IN BACTERIA” (UWM RESEARCH FOUNDATION, INC., priority 2007, published 2010)",
  "type_in_all_cases": "cell-based, Dickeya dadantii 3937 (Ech3937)",
  "key": {"hrpN promoter": {"tested_on": "hrpN promoter", "test": "hrpN promoter activity, GFP reporter plasmid phrpN, flow cytometry (FACS)", "details": "for GFP intensity (Mean Fluorescence Intensity) of Ech3937 (phrpN): MM + 0.1 mM PCA (MMPCA); for GFP intensity (Mean Fluorescence Intensity) of WPP96 (phrpN): hrpL mutant WPP96; for GFP intensity (Mean Fluorescence Intensity) of WPP96 (phrpN) / GFP intensity (Mean Fluorescence Intensity) of WPP90 (phrpN) / GFP intensity (Mean Fluorescence Intensity) of WPP67 (phrpN) / GFP intensity (Mean Fluorescence Intensity) of WPP92 (phrpN): MM + 0.1 mM PCA; for GFP intensity (Mean Fluorescence Intensity) of WPP90 (phrpN): hrpS mutant WPP90; for GFP intensity (Mean Fluorescence Intensity) of WPP67 (phrpN): hrpX mutant WPP67; for GFP intensity (Mean Fluorescence Intensity) of WPP92 (phrpN): hrpY mutant WPP92"}, "hrpA promoter": {"tested_on": "hrpA promoter", "test": "hrpA promoter activity, GFP reporter plasmid phrpA, flow cytometry (FACS)", "details": "for GFP intensity (Mean Fluorescence Intensity) of Ech3937 (phrpA): MM + 0.1 mM PCA (MMPCA); for expression of hrpA, GFP intensity (Mean Fluorescence Intensity), Ech3937 carrying phrpA: MM + 0.1 mM compound; for GFP intensity (Mean Fluorescence Intensity) of WPP96 (phrpA): hrpL mutant WPP96; for GFP intensity (Mean Fluorescence Intensity) of WPP96 (phrpA) / GFP intensity (Mean Fluorescence Intensity) of WPP90 (phrpA) / GFP intensity (Mean Fluorescence Intensity) of WPP67 (phrpA) / GFP intensity (Mean Fluorescence Intensity) of WPP92 (phrpA): MM + 0.1 mM PCA; for GFP intensity (Mean Fluorescence Intensity) of WPP90 (phrpA): hrpS mutant WPP90; for GFP intensity (Mean Fluorescence Intensity) of WPP67 (phrpA): hrpX mutant WPP67; for GFP intensity (Mean Fluorescence Intensity) of WPP92 (phrpA): hrpY mutant WPP92", "protocol": "(§1) FACS analysis of promoter activity of dspE, hrpA, hrpL, hrpN, and hrpS was carried out as described (Peng et al., 2006). Briefly, the wild-type Ech3937 and the mutant strains carrying the promoter reporter plasmid were grown on LB broth at 28° C. overnight and transferred to appropriate media. For FACS analysis, samples were collected by centrifugation, washed with 1× phosphate buffer saline (PBS) at 13,000 rpm for 1 min, and re-suspended in 1×PBS to ca 10^6 CFU/ml prior to being run in a FACS Calibur flow cytometer (BD Biosciences, CA). Three replicates were performed for each treatment.\nTo identify potential compounds that repress activation of T3SS, analogs and isomers of TCA and intermediates of salicylic acid and phenypropanoid biosynthesis pathways in plants were further screened for their effect on Ech3937 hrpA expression by flow cytometry (Table 9). A green fluorescent protein (GFP) reporter plasmid phrpA (pProbe-AT derivative with PCR fragment containing hrpA promoter region) was constructed, resulting in a transcriptional fusion of hrpA promoter with GFP gene. Bacterial cells containing phrpA plasmid were grown in MM supplemented with 0.1 mM of each compound. GFP intensity, which is a measurement of hrpA promoter activity, was measured by flow cytometry."}, "hrpL promoter": {"tested_on": "hrpL promoter", "test": "hrpL promoter activity, GFP reporter plasmid phrpL, flow cytometry (FACS)", "details": "MM + 0.1 mM PCA (MMPCA)", "protocol": "as §1\n(§2) Since OCA and TCA induced the expression of hrpN, the effect of these two phenolic compounds on the expression of hrpA, hrpL, and hrpS was investigated further. […] GFP intensity was determined on gated populations of bacterial cells by flow cytometry and analyzed with the Cell Quest software (BD Biosciences, San Jose, Calif.). The lines labeled “1” stand for the GFP expression control base level of the Ech3937 containing pPROBE-AT vector; lines labeled “2” stand for the promoter activity of hrpS, hrpL, hrpA and hrpN in Ech3937 in MM; lines labeled “3” stand for the promoter activity of Ech3937 in MM supplemented with 0.1 mM OCA; lines labeled “4” stand for the promoter activity of hrpL mutant WPP96 in MM; lines labeled “5” stand for the promoter activity of hrpL mutant WPP96 in MM supplemented with 0.1 mM OCA. Values are representative of at least two experiments. […] Compared with MM alone, the average GFP fluorescence intensity of bacterial cells of Ech3937 (phrpA) was doubled when 0.1 mM of OCA and TCA were added to the medium (Table 4; FIG. 3). […] The mrp, whose protein product has an ATPase conserved domain (2e-06), was used as a reference gene in this study."}, "hrpS promoter": {"tested_on": "hrpS promoter", "test": "hrpS promoter activity, GFP reporter plasmid phrpS, flow cytometry (FACS)", "details": "MM + 0.1 mM PCA (MMPCA)", "protocol": "as §1, §2"}, "mrp promoter": {"tested_on": "mrp promoter", "test": "mrp (reference gene) promoter activity, GFP reporter pmrp, flow cytometry (FACS)", "details": "reference gene, MM + 0.1 mM PCA", "protocol": "as §1, §2"}, "pPROBE-AT vector": {"tested_on": "pPROBE-AT vector", "test": "GFP expression control base level, pPROBE-AT vector, flow cytometry (FACS)", "details": "MM + 0.1 mM PCA", "protocol": "as §1, §2"}, "hrpS mRNA": {"tested_on": "hrpS mRNA", "test": "qRT-PCR relative mRNA level of hrpS", "details": "MM supplemented with PCA vs MM alone (normalized to 1), P=0.001", "protocol": "Bacterial strains were grown in MM. Total RNA from the bacterial cells was isolated by using the TRI reagent method (Sigma, Mo.) and treated with Turbo DNA-free DNase kits (Ambion, TX) as described (Peng et al., 2006). An iScript cDNA Synthesis Kit (Bio-Rad, CA) was used to synthesize cDNA from 0.5 μg of treated total RNA. The Real Master Mix (Eppendorf, Westbury, N.Y.) was used for qRT-PCR reaction to quantify the cDNA level of target genes in different samples. The rplU was used as the endogenous control for data analysis. qRT-PCR data were analyzed using Relative Expression Software Tool as described (Pfaffl, M. W., Horgan, G. W., and Dempfle, L. (2002) Relative expression software tool (REST) for group-wise comparison and statistical analysis of relative expression results in real-time PCR. Nucleic Acids Res 30:e36.)."}},
  "data": [
    {"compound": "O=C(O)/C=C/c1ccc(O)cc1", "note": "[PCA, p-coumaric acid]", "values": [
      {"measurement": "GFP intensity (Mean Fluorescence Intensity) of Ech3937 (phrpN)", "setting": "hrpN promoter; 12 h (Table 10)", "result": "6.8 ± 0.8"},
      {"measurement": "GFP intensity (Mean Fluorescence Intensity) of Ech3937 (phrpN)", "setting": "hrpN promoter; 12 h (Table 11)", "result": "4.3 ± 0.1"},
      {"measurement": "GFP intensity (Mean Fluorescence Intensity) of Ech3937 (phrpN)", "setting": "hrpN promoter; 24 h (Table 10)", "result": "11.3 ± 3.4"},
      {"measurement": "GFP intensity (Mean Fluorescence Intensity) of Ech3937 (phrpN)", "setting": "hrpN promoter; 24 h (Table 11)", "result": "8.8 ± 2.1"},
      {"measurement": "promoter activity (expression) of hrpN compared with MM alone", "setting": "hrpN promoter; MM supplemented with 0.1 mM PCA", "result": "reduced expression"},
      {"measurement": "GFP intensity (Mean Fluorescence Intensity) of WPP96 (phrpN)", "setting": "hrpN promoter; 12 h", "result": "3.0 ± 0.0"},
      {"measurement": "GFP intensity (Mean Fluorescence Intensity) of WPP96 (phrpN)", "setting": "hrpN promoter; 24 h", "result": "4.3 ± 0.1"},
      {"measurement": "GFP intensity (Mean Fluorescence Intensity) of WPP90 (phrpN)", "setting": "hrpN promoter; 12 h", "result": "3.5 ± 0.1"},
      {"measurement": "GFP intensity (Mean Fluorescence Intensity) of WPP90 (phrpN)", "setting": "hrpN promoter; 24 h", "result": "5.1 ± 0.1"},
      {"measurement": "GFP intensity (Mean Fluorescence Intensity) of WPP67 (phrpN)", "setting": "hrpN promoter; 12 h", "result": "3.5 ± 0.2"},
      {"measurement": "GFP intensity (Mean Fluorescence Intensity) of WPP67 (phrpN)", "setting": "hrpN promoter; 24 h", "result": "6.3 ± 0.7"},
      {"measurement": "GFP intensity (Mean Fluorescence Intensity) of WPP92 (phrpN)", "setting": "hrpN promoter; 12 h", "result": "3.6 ± 0.1"},
      {"measurement": "GFP intensity (Mean Fluorescence Intensity) of WPP92 (phrpN)", "setting": "hrpN promoter; 24 h", "result": "5.5 ± 0.3"},
      {"measurement": "reduction of average GFP fluorescence intensity of Ech3937 (phrpA) compared with MM alone", "setting": "hrpA promoter; 0.05 and 0.1 mM of PCA, 12 h and 24 h (FIGS. 16A, 16B)", "result": "more than 4 fold"},
      {"measurement": "GFP intensity (Mean Fluorescence Intensity) of Ech3937 (phrpA)", "setting": "hrpA promoter; 12 h (Table 10)", "result": "10.3 ± 1.3"},
      {"measurement": "GFP intensity (Mean Fluorescence Intensity) of Ech3937 (phrpA)", "setting": "hrpA promoter; 12 h (Table 11)", "result": "9.2 ± 0.4"},
      {"measurement": "GFP intensity (Mean Fluorescence Intensity) of Ech3937 (phrpA)", "setting": "hrpA promoter; 24 h (Table 10)", "result": "18.5 ± 3.5"},
      {"measurement": "GFP intensity (Mean Fluorescence Intensity) of Ech3937 (phrpA)", "setting": "hrpA promoter; 24 h (Table 11)", "result": "12.7 ± 0.3"},
      {"measurement": "effect on expression of hrpA (screen result)", "setting": "hrpA promoter; MM + 0.1 mM compound (Table 9)", "result": "inhibitors of the expression of hrpA"},
      {"measurement": "expression of hrpA, GFP intensity (Mean Fluorescence Intensity), Ech3937 carrying phrpA", "setting": "hrpA promoter; 6 h (Table 9)", "result": "6.9 ± 0.1"},
      {"measurement": "expression of hrpA, GFP intensity (Mean Fluorescence Intensity), Ech3937 carrying phrpA", "setting": "hrpA promoter; 12 h (Table 9)", "result": "10.2 ± 0.4"},
      {"measurement": "expression of hrpA, GFP intensity (Mean Fluorescence Intensity), Ech3937 carrying phrpA", "setting": "hrpA promoter; 24 h (Table 9)", "result": "11.4 ± 1.0"},
      {"measurement": "reduction of GFP fluorescence intensity of Ech3937 (phrpA)", "setting": "hrpA promoter; PCA at 0.001, 0.005 and 0.01 (FIGS. 16A, 16B)", "result": "did not result in substantial reduction"},
      {"measurement": "GFP intensity (Mean Fluorescence Intensity) of WPP96 (phrpA)", "setting": "hrpA promoter; 12 h", "result": "7.3 ± 0.1"},
      {"measurement": "GFP intensity (Mean Fluorescence Intensity) of WPP96 (phrpA)", "setting": "hrpA promoter; 24 h", "result": "9.0 ± 1.6"},
      {"measurement": "GFP intensity (Mean Fluorescence Intensity) of WPP90 (phrpA)", "setting": "hrpA promoter; 12 h", "result": "7.9 ± 0.2"},
      {"measurement": "GFP intensity (Mean Fluorescence Intensity) of WPP90 (phrpA)", "setting": "hrpA promoter; 24 h", "result": "9.3 ± 0.2"},
      {"measurement": "GFP intensity (Mean Fluorescence Intensity) of WPP67 (phrpA)", "setting": "hrpA promoter; 12 h", "result": "7.9 ± 0.2"},
      {"measurement": "GFP intensity (Mean Fluorescence Intensity) of WPP67 (phrpA)", "setting": "hrpA promoter; 24 h", "result": "9.0 ± 1.3"},
      {"measurement": "GFP intensity (Mean Fluorescence Intensity) of WPP92 (phrpA)", "setting": "hrpA promoter; 12 h", "result": "6.9 ± 0.1"},
      {"measurement": "GFP intensity (Mean Fluorescence Intensity) of WPP92 (phrpA)", "setting": "hrpA promoter; 24 h", "result": "9.4 ± 0.7"},
      {"measurement": "GFP intensity (Mean Fluorescence Intensity) of Ech3937 (phrpL)", "setting": "hrpL promoter; 12 h (Table 10)", "result": "7.8 ± 0.1"},
      {"measurement": "GFP intensity (Mean Fluorescence Intensity) of Ech3937 (phrpL)", "setting": "hrpL promoter; 24 h (Table 10)", "result": "11.1 ± 3.3"},
      {"measurement": "GFP intensity (Mean Fluorescence Intensity) of Ech3937 (phrpS)", "setting": "hrpS promoter; 12 h (Table 10)", "result": "37.9 ± 1.3"},
      {"measurement": "GFP intensity (Mean Fluorescence Intensity) of Ech3937 (phrpS)", "setting": "hrpS promoter; 24 h (Table 10)", "result": "43.6 ± 2.6"},
      {"measurement": "GFP intensity (Mean Fluorescence Intensity) of Ech3937 (pmrp)", "setting": "mrp promoter; 12 h (Table 10)", "result": "124.1 ± 2.7"},
      {"measurement": "GFP intensity (Mean Fluorescence Intensity) of Ech3937 (pmrp)", "setting": "mrp promoter; 24 h (Table 10)", "result": "98.9 ± 1.0"},
      {"measurement": "GFP intensity (Mean Fluorescence Intensity) of Ech3937 (pPROBE-AT)", "setting": "pPROBE-AT vector; 12 h (Table 10)", "result": "2.2 ± 0.2"},
      {"measurement": "GFP intensity (Mean Fluorescence Intensity) of Ech3937 (pPROBE-AT)", "setting": "pPROBE-AT vector; 12 h (Table 11)", "result": "2.3 ± 0.1"},
      {"measurement": "GFP intensity (Mean Fluorescence Intensity) of Ech3937 (pPROBE-AT)", "setting": "pPROBE-AT vector; 24 h (Table 10)", "result": "14.0 ± 10.1"},
      {"measurement": "GFP intensity (Mean Fluorescence Intensity) of Ech3937 (pPROBE-AT)", "setting": "pPROBE-AT vector; 24 h (Table 11)", "result": "4.9 ± 0.1"},
      {"measurement": "hrpS mRNA relative expression ratio", "setting": "hrpS mRNA", "result": 0.223}
    ]}
  ]
}
